Measured values from US8829007B2 (priority 2009, dated 2014).
Read-outs that look alike come from different tables or passages of the source.

Legend:
[1] = test system: influenza A virus (A/PR/8/34); test: microbe, parasite or virus in culture; assay type: cell-based; settings: Influenza A virus, PR/8, MDCK, read-out: IC50 (mean all)
[2] = test system: A/PR/8/34 influenza virus; test: microbe, parasite or virus in culture; assay type: cell-based; settings: Influenza A virus, PR/8, MDCK, read-out: EC50 (mean all)
[3] = MDCK cells infected with A/PR/8/34, cell protection (CPE)
[4] = MDCK cells infected with A/PR/8/34, bDNA viral RNA

SMILES | IC50 [1, 3] [µM] | EC50 [2, 4] [µM] | IC50 [1] [µM] | EC50 [2] [µM]
COc1ccc(C(=O)N2CCC[C@H](CNc3nc(-c4c[nH]c5ncc(Cl)cc45)ncc3F)C2)cc1OC [Compound 109, (R)-(3-((2-(5-chloro-1H-pyrrolo[2,3-b]pyridin-3-yl)-5-fluoropyrimidin-4-ylamino)methyl)piperidin-1-yl)(3,4-dimethoxyphenyl)methanone] | < 5 | < 5 |  | 
CC(=O)OCC(=O)N1CCC[C@H](CNc2nc(-c3c[nH]c4ncc(Cl)cc34)ncc2F)C1 [Compound 110, (R)-2-(3-((2-(5-chloro-1H-pyrrolo[2,3-b]pyridin-3-yl)-5-fluoropyrimidin-4-ylamino)methyl)piperidin-1-yl)-2-oxoethyl ethanoate] | < 5 | < 5 |  | 
CC(=O)N1CCC[C@H](CNc2nc(-c3c[nH]c4ncc(Cl)cc34)ncc2F)C1 [Compound 111, (R)-1-(3-((2-(5-chloro-1H-pyrrolo[2,3-b]pyridin-3-yl)-5-fluoropyrimidin-4-ylamino)methyl)piperidin-1-yl)ethanone] | < 5 | < 5 |  | 
CNc1ccccc1C(=O)N1CCC[C@H](CNc2nc(-c3c[nH]c4ncc(Cl)cc34)ncc2F)C1 [Compound 112, (R)-(3-((2-(5-chloro-1H-pyrrolo[2,3-b]pyridin-3-yl)-5-fluoropyrimidin-4-ylamino)methyl)piperidin-1-yl)(2-(methylamino)phenyl)methanone] | < 5 | < 5 |  | 
COc1ccccc1C(=O)N1CCC[C@H](CNc2nc(-c3c[nH]c4ncc(Cl)cc34)ncc2F)C1 [Compound 113, (R)-(3-((2-(5-chloro-1H-pyrrolo[2,3-b]pyridin-3-yl)-5-fluoropyrimidin-4-ylamino)methyl)piperidin-1-yl)(2-methoxyphenyl)methanone] | < 5 | < 5 |  | 
C=CCOC(=O)N1CCC[C@H](CNc2nc(-c3c[nH]c4ncc(Cl)cc34)ncc2F)C1 [Compound 119, (R)-allyl 3-((2-(5-chloro-1H-pyrrolo[2,3-b]pyridin-3-yl)-5-fluoropyrimidin-4-ylamino)methyl)piperidine-1-carboxylate] | < 5 | < 5 |  | 
Cc1cc(NC(=O)N2CCC[C@H](CNc3nc(-c4c[nH]c5ncc(Cl)cc45)ncc3F)C2)c(C(F)(F)F)o1 [Compound 120, (R)-3-((2-(5-chloro-1H-pyrrolo[2,3-b]pyridin-3-yl)-5-fluoropyrimidin-4-ylamino)methyl)-N-(5-methyl-2-(trifluoromethyl)furan-3-yl)piperidine-1-carboxamide] | < 5 | < 5 |  | 
C#CCOC(=O)N1CCC[C@H](CNc2nc(-c3c[nH]c4ncc(Cl)cc34)ncc2F)C1 [Compound 122, (R)-prop-2-ynyl 3-((2-(5-chloro-1H-pyrrolo[2,3-b]pyridin-3-yl)-5-fluoropyrimidin-4-ylamino)methyl)piperidine-1-carboxylate] | < 5 | < 5 |  | 
Fc1cnc(-c2c[nH]c3ncc(Cl)cc23)nc1NC[C@H]1CCCN(c2ncccn2)C1 [Compound 124, (R)-2-(5-chloro-1H-pyrrolo[2,3-b]pyridin-3-yl)-5-fluoro-N-((1-(pyrimidin-2-yl)piperidin-3-yl)methyl)pyrimidin-4-amine] | < 5 | < 5 |  | 
O=C(OCCF)N1CCC[C@H](CNc2nc(-c3c[nH]c4ncc(Cl)cc34)ncc2F)C1 [Compound 126, (R)-2-fluoroethyl 3-((2-(5-chloro-1H-pyrrolo[2,3-b]pyridin-3-yl)-5-fluoropyrimidin-4-ylamino)methyl)piperidine-1-carboxylate] | < 5 | < 5 |  | 
CC#CCOC(=O)N1CCC[C@H](CNc2nc(-c3c[nH]c4ncc(Cl)cc34)ncc2F)C1 [Compound 127, (R)-but-2-ynyl 3-((2-(5-chloro-1H-pyrrolo[2,3-b]pyridin-3-yl)-5-fluoropyrimidin-4-ylamino)methyl)piperidine-1-carboxylate] |  |  | < 5 | < 5
CC(C)(C)NC(=O)N1CCC[C@H](CNc2nc(-c3c[nH]c4ncc(Cl)cc34)ncc2F)C1 [Compound 128, (R)—N-tert-butyl-3-((2-(5-chloro-1H-pyrrolo[2,3-b]pyridin-3-yl)-5-fluoropyrimidin-4-ylamino)methyl)piperidine-1-carboxamide] | < 5 | < 5 |  | 
O=C(Nc1cccs1)N1CCC[C@H](CNc2nc(-c3c[nH]c4ncc(Cl)cc34)ncc2F)C1 [Compound 129, (R)-3-((2-(5-chloro-1H-pyrrolo[2,3-b]pyridin-3-yl)-5-fluoropyrimidin-4-ylamino)methyl)-N-(thiophen-2-yl)piperidine-1-carboxamide] | < 5 | < 5 |  | 
COC(=O)NC(=O)N1CCC[C@H](CNc2nc(-c3c[nH]c4ncc(Cl)cc34)ncc2F)C1 [Compound 131, (R)-methyl 3-((2-(5-chloro-1H-pyrrolo[2,3-b]pyridin-3-yl)-5-fluoropyrimidin-4-ylamino)methyl)piperidine-1-carbonylcarbamate] | < 5 | < 5 |  | 
O=C(c1cc(F)cc2c1OCOC2)N1CCC[C@H](CNc2nc(-c3c[nH]c4ncc(Cl)cc34)ncc2F)C1 [Compound 142, (R)-(3-((2-(5-chloro-1H-pyrrolo[2,3-b]pyridin-3-yl)-5-fluoropyrimidin-4-ylamino)methyl)piperidin-1-yl)(6-fluoro-4H-benzo[d][1,3]dioxin-8-yl)methanone] | < 5 | < 5 |  | 
Cc1ccccc1C(=O)N1CCC[C@H](CNc2nc(-c3c[nH]c4ncc(Cl)cc34)ncc2F)C1 [Compound 143, (R)-(3-((2-(5-chloro-1H-pyrrolo[2,3-b]pyridin-3-yl)-5-fluoropyrimidin-4-ylamino)methyl)piperidin-1-yl)(o-tolyl)methanone] | < 5 | < 5 |  | 
O=C(c1ccc2c(c1)OCC2)N1CCC[C@H](CNc2nc(-c3c[nH]c4ncc(Cl)cc34)ncc2F)C1 [Compound 145, (R)-(3-((2-(5-chloro-1H-pyrrolo[2,3-b]pyridin-3-yl)-5-fluoropyrimidin-4-ylamino)methyl)piperidin-1-yl)(2,3-dihydrobenzofuran-6-yl)methanone] | < 5 | < 5 |  | 
O=C(c1ccccc1C(F)(F)F)N1CCC[C@H](CNc2nc(-c3c[nH]c4ncc(Cl)cc34)ncc2F)C1 [Compound 146, (R)-(3-((2-(5-chloro-1H-pyrrolo[2,3-b]pyridin-3-yl)-5-fluoropyrimidin-4-ylamino)methyl)piperidin-1-yl)(2-(trifluoromethyl)phenyl)methanone] | < 5 | < 5 |  | 
O=C(c1ccc(Cl)cc1Cl)N1CCC[C@H](CNc2nc(-c3c[nH]c4ncc(Cl)cc34)ncc2F)C1 [Compound 147, (R)-(3-((2-(5-chloro-1H-pyrrolo[2,3-b]pyridin-3-yl)-5-fluoropyrimidin-4-ylamino)methyl)piperidin-1-yl)(2,4-dichlorophenyl)methanone] | < 5 | < 5 |  | 
COc1c(C)cccc1C(=O)N1CCC[C@H](CNc2nc(-c3c[nH]c4ncc(Cl)cc34)ncc2F)C1 [Compound 148, (R)-(3-((2-(5-chloro-1H-pyrrolo[2,3-b]pyridin-3-yl)-5-fluoropyrimidin-4-ylamino)methyl)piperidin-1-yl)(2-methoxy-3-methylphenyl)methanone] | < 5 | < 5 |  | 
O=C(c1cc(F)ccc1F)N1CCC[C@H](CNc2nc(-c3c[nH]c4ncc(Cl)cc34)ncc2F)C1 [Compound 151] | < 5 | < 5 |  | 
O=C(c1ccc(F)cc1F)N1CCC[C@H](CNc2nc(-c3c[nH]c4ncc(Cl)cc34)ncc2F)C1 [Compound 152, (R)-(3-((2-(5-chloro-1H-pyrrolo[2,3-b]pyridin-3-yl)-5-fluoropyrimidin-4-ylamino)methyl)piperidin-1-yl)(2,4-difluorophenyl)methanone] | < 5 | < 5 |  | 
COc1ccc(C(=O)N2CCC[C@H](CNc3nc(-c4c[nH]c5ncc(Cl)cc45)ncc3F)C2)c(OC)c1 [Compound 154, (R)-(3-((2-(5-chloro-1H-pyrrolo[2,3-b]pyridin-3-yl)-5-fluoropyrimidin-4-ylamino)methyl)piperidin-1-yl)(2,4-dimethoxyphenyl)methanone] | 5 to 20 | < 5 |  | 
Cc1cccc(C(=O)N2CCC[C@H](CNc3nc(-c4c[nH]c5ncc(Cl)cc45)ncc3F)C2)c1C [Compound 157, (R)-(3-((2-(5-chloro-1H-pyrrolo[2,3-b]pyridin-3-yl)-5-fluoropyrimidin-4-ylamino)methyl)piperidin-1-yl)(2,3-dimethylphenyl)methanone] | < 5 | < 5 |  | 
COCCOC(=O)N1CCCC[C@H]1CNc1nc(-c2c[nH]c3ncc(Cl)cc23)ncc1F [Compound 161, (S)-2-methoxyethyl 2-((2-(5-chloro-1H-pyrrolo[2,3-b]pyridin-3-yl)-5-fluoropyrimidin-4-ylamino)methyl)piperidine-1-carboxylate] | > 20 | < 5 |  | 
O=C(OCCCl)N1CCCC[C@H]1CNc1nc(-c2c[nH]c3ncc(Cl)cc23)ncc1F [Compound 163, (S)-2-chloroethyl 2-((2-(5-chloro-1H-pyrrolo[2,3-b]pyridin-3-yl)-5-fluoropyrimidin-4-ylamino)methyl)piperidine-1-carboxylate] | 5 to 20 | < 5 |  | 
C#CCOC(=O)N1CCCC[C@H]1CNc1nc(-c2c[nH]c3ncc(Cl)cc23)ncc1F [Compound 164, (S)-prop-2-ynyl 2-((2-(5-chloro-1H-pyrrolo[2,3-b]pyridin-3-yl)-5-fluoropyrimidin-4-ylamino)methyl)piperidine-1-carboxylate] | > 20 | < 5 |  | 
COC(=O)N1CCCC[C@H]1CNc1nc(-c2c[nH]c3ncc(Cl)cc23)ncc1F [Compound 166, (S)-methyl 2-((2-(5-chloro-1H-pyrrolo[2,3-b]pyridin-3-yl)-5-fluoropyrimidin-4-ylamino)methyl)piperidine-1-carboxylate] | 5 to 20 | < 5 |  | 
